Test results as given in ChEMBL document CHEMBL1155902, “Nitrogen-containing flavonoid analogues as CDK1/cyclin B inhibitors: synthesis, SAR analysis, and biological activity” (Bioorg Med Chem, 2008).

Molecular target: Cyclin-dependent kinase 1/cyclin B1 (Homo sapiens, UniProt P06493)
Experiment: Inhibition of Cdk1/cyclin B
Assay type: protein-complex assay

Chain of Cyclin-dependent kinase 1/cyclin B1 (P06493 whole entry): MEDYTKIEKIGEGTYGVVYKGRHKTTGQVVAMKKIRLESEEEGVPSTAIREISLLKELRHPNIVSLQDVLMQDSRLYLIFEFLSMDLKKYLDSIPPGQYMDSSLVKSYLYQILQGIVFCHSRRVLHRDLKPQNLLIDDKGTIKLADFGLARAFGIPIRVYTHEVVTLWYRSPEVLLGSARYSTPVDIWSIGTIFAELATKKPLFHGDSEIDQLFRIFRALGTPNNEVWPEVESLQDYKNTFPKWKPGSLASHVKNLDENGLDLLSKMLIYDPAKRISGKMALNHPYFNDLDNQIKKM
Chain of Cyclin-dependent kinase 1/cyclin B1 (P14635 whole entry, further chain): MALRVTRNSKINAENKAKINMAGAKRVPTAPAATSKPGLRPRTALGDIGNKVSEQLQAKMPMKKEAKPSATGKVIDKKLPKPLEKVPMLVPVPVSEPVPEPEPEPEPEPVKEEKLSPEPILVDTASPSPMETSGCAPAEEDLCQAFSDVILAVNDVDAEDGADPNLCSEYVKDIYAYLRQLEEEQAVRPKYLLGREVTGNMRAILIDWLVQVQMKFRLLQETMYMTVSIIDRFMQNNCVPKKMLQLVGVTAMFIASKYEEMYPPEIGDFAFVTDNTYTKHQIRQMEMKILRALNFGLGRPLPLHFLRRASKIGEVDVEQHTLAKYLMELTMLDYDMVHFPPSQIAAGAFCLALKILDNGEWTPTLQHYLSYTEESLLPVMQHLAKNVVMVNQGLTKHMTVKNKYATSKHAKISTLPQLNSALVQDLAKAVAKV

## COc1cc(O)c(C(=O)/C=C/c2ccccc2)cc1CN1CCCCC1
  IC50: > 20 µM

## O=c1c(O)c(-c2ccc(O)c(O)c2)oc2c(CN3CCOCC3)c(O)cc(O)c12
  IC50: > 20 µM

## COc1cc(O)c(C(=O)/C=C/c2ccccc2)cc1CN(C)C
  IC50: > 20 µM

## COc1cc(O)c(C(=O)/C=C/c2ccccc2)cc1CN1CCOCC1
  IC50: > 20 µM

## O=c1cc(-c2ccccc2)oc2c(CN3CCCC3)c(O)c(O)c(O)c12
  IC50: 1.22 µM

## COc1cc(O)c(C(=O)/C=C/c2ccccc2)cc1CN1CCCC1
  IC50: > 20 µM

## O=c1cc(-c2ccccc2)oc2c(CN3CCSCC3)c(O)c(O)c(O)c12
  IC50: 0.38 µM

## COc1cc(O)c(C(=O)/C=C/c2ccccc2)cc1CN1CCN(C)CC1
  IC50: > 20 µM

## CN(C)Cc1c(O)c(O)c(O)c2c(=O)cc(-c3ccccc3)oc12
  IC50: 1.05 µM

## COC(=O)[C@H]1O[C@@H](Oc2cc3oc(-c4ccccc4)cc(=O)c3c(O)c2O)[C@H](O)[C@H](O)[C@@H]1O [BAICALIN METHYLATE]
  IC50: 11.6 µM

## O=c1cc(-c2ccccc2)oc2cc(O)c(O)c(O)c12 [BAICALEIN]
  IC50: 6.53 µM

## CN(C)Cc1c(O)cc(O)c2c(=O)c(O)c(-c3ccc(O)c(O)c3)oc12
  IC50: 15.7 µM

## O=c1cc(-c2ccccc2)oc2c(CN3CCOCC3)c(O)c(O)c(O)c12
  IC50: 0.28 µM

## COc1cc(O)c(C(=O)/C=C/c2ccccc2)cc1CN1CCSCC1
  IC50: > 20 µM

## O=c1cc(-c2ccccc2)oc2c(CN3CCCCC3)c(O)c(O)c(O)c12
  IC50: 1.28 µM

## O=c1c(O)c(-c2ccc(O)c(O)c2)oc2c(CN3CCCCC3)c(O)cc(O)c12
  IC50: 18.7 µM

## O=C(O)[C@H]1O[C@@H](Oc2cc3oc(-c4ccccc4)cc(=O)c3c(O)c2O)[C@H](O)[C@@H](O)[C@@H]1O [BAICALIN]
  IC50: 14.4 µM

## COc1ccc(C(=O)/C=C/c2ccccc2)c(O)c1
  IC50: > 20 µM

## O=c1c(O)c(-c2ccc(O)c(O)c2)oc2cc(O)cc(O)c12 [QUERCETIN]
  IC50: > 20 µM

## CN1CCN(Cc2c(O)cc(O)c3c(=O)c(O)c(-c4ccc(O)c(O)c4)oc23)CC1
  IC50: > 20 µM

## CN1CCN(Cc2c(O)c(O)c(O)c3c(=O)cc(-c4ccccc4)oc23)CC1
  IC50: 0.27 µM
